Measured values as given in PubChem BioAssay (NCI).
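At the GI50, growth is halved. TGI: concentration producing complete growth inhibition.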

Experiments:
Assay in all cases: DTP human tumour cell line panel, 384-well format
SK-OV-3 ovarian = test system: SK-OV-3 ovarian
SF-268 CNS = test system: SF-268 CNS
MCF7 breast = test system: MCF7 breast
CAKI-1 renal = test system: CAKI-1 renal
PC-3 prostate = test system: PC-3 prostate
TK-10 renal = test system: TK-10 renal
SNB-19 CNS = test system: SNB-19 CNS
SF-539 CNS = test system: SF-539 CNS
UO-31 renal = test system: UO-31 renal
SK-MEL-5 melanoma = test system: SK-MEL-5 melanoma
BT-549 breast = test system: BT-549 breast
HS 578T breast = test system: HS 578T breast
MOLT-4 leukemia = test system: MOLT-4 leukemia
HCC-2998 colon = test system: HCC-2998 colon
KM12 colon = test system: KM12 colon
HOP-62 NSCLC = test system: HOP-62 NSCLC
HOP-92 NSCLC = test system: HOP-92 NSCLC
RPMI-8226 leukemia = test system: RPMI-8226 leukemia
A549 NSCLC = test system: A549 NSCLC
M14 melanoma = test system: M14 melanoma
SR leukemia = test system: SR leukemia
SNB-75 CNS = test system: SNB-75 CNS
OVCAR-4 ovarian = test system: OVCAR-4 ovarian
SF-295 CNS = test system: SF-295 CNS
K-562 leukemia = test system: K-562 leukemia
ACHN renal = test system: ACHN renal
OVCAR-8 ovarian = test system: OVCAR-8 ovarian
OVCAR-5 ovarian = test system: OVCAR-5 ovarian
MDA-MB-468 breast = test system: MDA-MB-468 breast
SW-620 colon = test system: SW-620 colon
HL-60(TB) leukemia = test system: HL-60(TB) leukemia
UACC-257 melanoma = test system: UACC-257 melanoma
SK-MEL-2 melanoma = test system: SK-MEL-2 melanoma
RXF 393 renal = test system: RXF 393 renal
U251 glioblastoma = test system: U251 glioblastoma
HCT-116 colon = test system: HCT-116 colon
IGROV1 ovarian = test system: IGROV1 ovarian
SN12C renal = test system: SN12C renal
786-0 renal = test system: 786-0 renal
MDA-MB-435 melanoma = test system: MDA-MB-435 melanoma
HCT-15 colon = test system: HCT-15 colon
CCRF-CEM leukemia = test system: CCRF-CEM leukemia
NCI-H322M lung = test system: NCI-H322M lung
T-47D breast = test system: T-47D breast
OVCAR-3 ovarian = test system: OVCAR-3 ovarian
NCI-H23 lung = test system: NCI-H23 lung
SK-MEL-28 melanoma = test system: SK-MEL-28 melanoma
MALME-3M melanoma = test system: MALME-3M melanoma
HT29 colon = test system: HT29 colon
LOX IMVI melanoma = test system: LOX IMVI melanoma
NCI-H226 lung = test system: NCI-H226 lung
DU-145 prostate = test system: DU-145 prostate
EKVX NSCLC = test system: EKVX NSCLC
NCI-H460 NSCLC = test system: NCI-H460 NSCLC
UACC-62 melanoma = test system: UACC-62 melanoma
A498 renal = test system: A498 renal
NCI-H522 lung = test system: NCI-H522 lung
NCI/ADR-RES ovarian = test system: NCI/ADR-RES ovarian
MDA-MB-231 breast = test system: MDA-MB-231 breast
COLO 205 colon = test system: COLO 205 colon

Q: Which results are given for Cn1ncc2cc(-c3cnc(N)c(Cl)c3N3CCC4(CCNC4=O)CC3)ccc21?
A: GI50 (SK-OV-3 ovarian): 29.9 µM; TGI (SK-OV-3 ovarian): > 93.3 µM; GI50 (SF-268 CNS): 41.9 µM; TGI (SF-268 CNS): > 100 µM; GI50 (MCF7 breast): 48.1 µM; TGI (MCF7 breast): > 100 µM; GI50 (CAKI-1 renal): 20.6 µM; TGI (CAKI-1 renal): > 95.7 µM; GI50 (PC-3 prostate): 28.3 µM; TGI (PC-3 prostate): > 96.5 µM; GI50 (TK-10 renal): 38.2 µM; TGI (TK-10 renal): > 100 µM; GI50 (SNB-19 CNS): 63.1 µM; TGI (SNB-19 CNS): > 100 µM; GI50 (SF-539 CNS): 48.6 µM; TGI (SF-539 CNS): > 100 µM; GI50 (UO-31 renal): 32.3 µM; TGI (UO-31 renal): > 100 µM; GI50 (SK-MEL-5 melanoma): 21.2 µM; TGI (SK-MEL-5 melanoma): 48.7 µM; GI50 (BT-549 breast): 38.1 µM; TGI (BT-549 breast): > 100 µM; GI50 (HS 578T breast): 24.1 µM; TGI (HS 578T breast): 46.9 µM; GI50 (MOLT-4 leukemia): 10.8 µM; TGI (MOLT-4 leukemia): 23.8 µM; GI50 (HCC-2998 colon): 43.1 µM; TGI (HCC-2998 colon): > 100 µM; GI50 (KM12 colon): 32.4 µM; TGI (KM12 colon): > 100 µM; GI50 (HOP-62 NSCLC): 29.2 µM; TGI (HOP-62 NSCLC): > 90.6 µM; GI50 (HOP-92 NSCLC): 41.4 µM; TGI (HOP-92 NSCLC): > 87.8 µM; GI50 (RPMI-8226 leukemia): 3.6 µM; TGI (RPMI-8226 leukemia): 27.6 µM; GI50 (A549 NSCLC): 47.6 µM; TGI (A549 NSCLC): > 100 µM; GI50 (M14 melanoma): > 78.2 µM; TGI (M14 melanoma): > 100 µM; GI50 (SR leukemia): 8.79 µM; TGI (SR leukemia): 21.7 µM; GI50 (SNB-75 CNS): 58.3 µM; TGI (SNB-75 CNS): > 100 µM; GI50 (OVCAR-4 ovarian): 97.1 µM; TGI (OVCAR-4 ovarian): > 100 µM; GI50 (SF-295 CNS): 46.1 µM; TGI (SF-295 CNS): > 100 µM; GI50 (K-562 leukemia): 36.1 µM; TGI (K-562 leukemia): > 100 µM; GI50 (ACHN renal): 14.1 µM; TGI (ACHN renal): > 100 µM; GI50 (OVCAR-8 ovarian): 34.8 µM; TGI (OVCAR-8 ovarian): > 100 µM; GI50 (OVCAR-5 ovarian): 51 µM; TGI (OVCAR-5 ovarian): > 100 µM; GI50 (MDA-MB-468 breast): 9.27 µM; TGI (MDA-MB-468 breast): 25.5 µM; GI50 (SW-620 colon): 3.59 µM; TGI (SW-620 colon): 17.5 µM; GI50 (HL-60(TB) leukemia): 13.4 µM; TGI (HL-60(TB) leukemia): 26.2 µM; GI50 (UACC-257 melanoma): 15.4 µM; TGI (UACC-257 melanoma): 31.8 µM; GI50 (SK-MEL-2 melanoma): 17.6 µM; TGI (SK-MEL-2 melanoma): 47.1 µM; GI50 (RXF 393 renal): 18.6 µM; TGI (RXF 393 renal): 42.9 µM; GI50 (U251 glioblastoma): 21.3 µM; TGI (U251 glioblastoma): > 100 µM; GI50 (HCT-116 colon): 29.4 µM; TGI (HCT-116 colon): > 100 µM; GI50 (IGROV1 ovarian): 19.6 µM; TGI (IGROV1 ovarian): > 87 µM; GI50 (SN12C renal): 48.2 µM; TGI (SN12C renal): > 100 µM; GI50 ([…]-0 renal): 10.7 µM; TGI (786-0 renal): 25.4 µM; GI50 (MDA-MB-435 melanoma): > 87.5 µM; TGI (MDA-MB-435 melanoma): > 100 µM; GI50 (HCT-15 colon): 22.5 µM; TGI (HCT-15 colon): 83.4 µM; GI50 (CCRF-CEM leukemia): 14.3 µM; TGI (CCRF-CEM leukemia): 32.9 µM; GI50 (NCI-H322M lung): 47.6 µM; TGI (NCI-H322M lung): > 100 µM; GI50 (T-47D breast): 21.5 µM; TGI (T-47D breast): > 96.1 µM; GI50 (OVCAR-3 ovarian): 23.5 µM; TGI (OVCAR-3 ovarian): > 100 µM; GI50 (NCI-H23 lung): 34.2 µM; TGI (NCI-H23 lung): > 80.3 µM; GI50 (SK-MEL-28 melanoma): 39.6 µM; TGI (SK-MEL-28 melanoma): > 100 µM; GI50 (MALME-3M melanoma): 40.9 µM; TGI (MALME-3M melanoma): > 85 µM; GI50 (HT29 colon): 16.6 µM; TGI (HT29 colon): > 59.9 µM; GI50 (LOX IMVI melanoma): 39.5 µM; TGI (LOX IMVI melanoma): > 100 µM; GI50 (NCI-H226 lung): 19.6 µM; TGI (NCI-H226 lung): 53.7 µM; GI50 (DU-145 prostate): 33.9 µM; TGI (DU-145 prostate): > 100 µM; GI50 (EKVX NSCLC): 28.2 µM; TGI (EKVX NSCLC): > 91.8 µM; GI50 (NCI-H460 NSCLC): 35.9 µM; TGI (NCI-H460 NSCLC): > 100 µM; GI50 (UACC-62 melanoma): 33.2 µM; TGI (UACC-62 melanoma): 97.6 µM; GI50 (A498 renal): 10.2 µM; TGI (A498 renal): > 100 µM; GI50 (NCI-H522 lung): 20.3 µM; TGI (NCI-H522 lung): > 100 µM; GI50 (NCI/ADR-RES ovarian): 31.4 µM; TGI (NCI/ADR-RES ovarian): > 83.3 µM; GI50 (MDA-MB-231 breast): 32.8 µM; TGI (MDA-MB-231 breast): > 100 µM; GI50 (COLO 205 colon): 48.3 µM; TGI (COLO 205 colon): > 100 µM
